# Columns and labels:
# [1] = system: bile duct-ligated (BDL) rats; assay: Serum markers of liver function in bile duct-ligated (BDL) rats; format: in vivo, Sprague-Dawley rats; settings: GW4064 100 mg/kg daily i.p. for 7 days
# Experimental: (§1) Male Sprague-Dawley rats (approximately 300 grams) were obtained from Charles River Laboratories Inc (Raleigh, N.C.) and were maintained on a 12 hour light/12 hour dark light cycle. Animals were anesthetized by the administration of 2-3% isoflurane. Laparotomy was performed under sterile technique and the liver and duodenum gently displaced to reveal the common bile duct. The bile duct was separated from the surrounding tissue and two ligatures of 4-0 Ethilon were placed around it. The bile duct was clamped between the two ligatures with an aneurysm clamp and the ligatures drawn tight. An additional ligature was placed proximal to the first (near the liver). The clamp was removed and the bile duct severed between the ligatures. The muscle wall was closed with 4-0 Vicryl and the skin closed with staples. Animals were allowed to recover for 24 hours prior to administration of drug (GW4064, 100 mg/kg daily in corn oil/10% DMSO) or vehicle alone (in corn oil/10% DMSO) by a daily intra-peritoneal injection for 7 days prior to sacrifice. Animals were allowed food and water ad libitum throughout the study period. Animals were anesthetized with 2-3% isoflurane and sacrificed by cardiac puncture.
# Serum levels of alanine aminotransferase (ALT), asparate aminotransferase (AST), total bilirubin (TBILI), and γ-glutamyl transferase (GGT) were determined using an Instrumentation Laboratory Ilab600 clinical chemistry analyzer. Serum bile acids (BILEA) were determined using a commercially available assay (Sigma Chemical Co., St Louis, Mo.).
# [2] = system: bile duct-ligated (BDL) rats; assay: Histological examination of liver samples from BDL rats; format: in vivo, Sprague-Dawley rats; settings: GW4064 100 mg/kg daily i.p. for 7 days
# Experimental: as §1
# A section of the liver was removed and placed into 10% neutral buffered formalin. […]
smiles,measurement,setting,value
CC(C)c1onc(-c2c(Cl)cccc2Cl)c1COc1ccc(/C=C/c2cccc(C(=O)O)c2)c(Cl)c1 [GW4064],Liver function as defined by the panel of enzymes examined,[1],pronounced improvement in liver function
same,"Serum level of ALT, as % of that in BDL rats receiving vehicle alone",[1]; corn oil/10% DMSO,23%
same,"Serum level of AST, as % of that in BDL rats receiving vehicle alone",[1]; corn oil/10% DMSO,27%
same,"Serum level of GGT, as % of that in BDL rats receiving vehicle alone",[1]; corn oil/10% DMSO,34%
same,"Serum level of TBILI, as % of that in BDL rats receiving vehicle alone",[1]; corn oil/10% DMSO,49%
same,Liver histology: bile duct proliferation,[2],only bile duct proliferation
same,Liver histology: necrosis,[2]; vehicle-treated showed large areas of necrosis,no necrosis
